Columns and labels:
[1] = Tmax in Sprague-Dawley rat at 20 to 25 mg/kg, po measured up to 24 hrs by LC-MS/MS analysis; assay type: ADME, organism-based; settings: in vivo, dose 20-25 mg/kg
[2] = Clearance in Sprague-Dawley rat at 5 mg/kg, iv measured up to 24 hrs by LC-MS/MS analysis; assay type: ADME, organism-based; settings: in vivo
[3] = Dose normalized Cmax in Sprague-Dawley rat at 20 to 25 mg/kg, po measured up to 24 hrs by LC-MS/MS analysis; assay type: ADME, organism-based; settings: in vivo, dose 20-25 mg/kg
[4] = Toxicity in C57BL/6 mouse inoculated with mouse MC38 cells assessed as body weight loss at 100 mg/kg, po twice a day for 2 weeks by five days on/two days off schedule relative to control; assay type: organism-based, MC-38; settings: in vivo, 336 h
Mus musculus [5] = experiment: Immunomodulatory activity in mouse MC38 cells inoculated C57BL/6 mouse syngeneic model assessed as […] in M1 like TAM (CD86+ CD11b+ F4/80+)at 100 mg/kg, po twice a day for 2 weeks by five days on/two days off schedule relative to control; assay type: functional, MC-38
[6] = Half life in Sprague-Dawley rat at 5 mg/kg, iv measured up to 24 hrs by LC-MS/MS analysis; assay type: ADME, organism-based; settings: in vivo
MC-38 = experiment: Antitumor activity against mouse MC38 cells inoculated C57BL/6 mouse syngeneic model assessed as tumor growth inhibition at 100 mg/kg, po twice a day for 2 weeks by five days on/two days off schedule relative to control; assay type: functional; settings: MC-38, po, 336 h, read-out: TGI
[7] = Half life in Sprague-Dawley rat at 20 to 25 mg/kg, po measured up to 24 hrs by LC-MS/MS analysis; assay type: ADME, organism-based; settings: in vivo, dose 20-25 mg/kg
[8] = Volume of distribution at steady state in Sprague-Dawley rat at 5 mg/kg, iv measured up to 24 hrs by LC-MS/MS analysis; assay type: ADME, organism-based; settings: in vivo, read-out: Vdss
Mus musculus [9] = experiment: Immunomodulatory activity in mouse MC38 cells inoculated C57BL/6 mouse syngeneic model assessed as decrease in M2 like TAM (CD206+ CD11b F4/80+) at 100 mg/kg, po twice a day for 2 weeks by five days on/two days off schedule relative to control; assay type: functional, MC-38
[10] = Oral bioavailability in Sprague-Dawley rat at 20 to 25 mg/kg measured up to 24 hrs by LC-MS/MS analysis; assay type: ADME, organism-based; settings: in vivo, dose 20-25 mg/kg

## CN(C)c1ccc2c(Oc3ccc(NC(=O)NCc4ccc(C(F)(F)F)nc4)cc3)ncnc2c1.CS(=O)(=O)O
[1]
  Tmax: 0.5 h
[2]
  clearance: 8.9 mL/min/kg
[3]
  Cmax/dose: 68 ng/mL
[4]
  Activity: Non-Toxic
Mus musculus [5]
  fold change (FC): 3
[6]
  half-life: 2.4 h
MC-38
  inhibition in vivo at 100 mg/kg: 59%
[7]
  half-life: 11.6 h
[8]
  Vd: 1 L/kg
Mus musculus [9]
  fold change (FC): 2.5
[10]
  bioavailability: 34.9%

From ChEMBL document CHEMBL4842383 (J Med Chem, 2021)
